Data from US20230302022A1, “PREVENTING OR MITIGATING CHEMOTHERAPY INDUCED ALOPECIA USING VITAMIN D” (priority 2016, published 2023).
“And” between values parts separate entries of the source, which are not always exact repeats. Identical values can stand only once. “Also recorded” adds a separate entry of the source.

Legend:
[1] = system: Long Evans and Sprague Dawley rats; assay: Chemotherapy-induced alopecia (CIA) in the neonatal rat, topical calcitriol formulation; format: in vivo
Method: Specifically, Long Evans and Sprague Dawley rats with pups were purchased from Harlan Laboratories, Inc. They were housed and fed according to applicable animal handling rules and regulations. Pups were allowed to acclimate for 48 hours prior to the start of experiments. […] Rats were isolated from their littermates and mother for 6-hour periods of time. Subsequently, the treated area was cleaned with soap and water and pups were returned to their litters. On day 13, rats either received etoposide (1.5 mg/kg daily for 3 days) or cyclophosphamide (CTX) (37.5 mg/kg once) or combination cyclophosphamide (35 mg/kg once) and doxorubicin (2.5 mg/kg daily for 3 days). All chemotherapies were purchased from Sigma and were given intraperitoneally (i.p.) in a total volume of 0.1 mL. Alopecia was recorded 10 days after the last dose of chemotherapy.

[2] = system: SkBr-3 (breast adenocarcinoma cancer, Her2 overexpressed); assay: Cell growth / viability assay, SkBr-3; format: cell-based
Method: The drug treatment period was usually three days. At the end of the three days, the background OD of the 96-well plate was read at 280 nm, before 20 μL of the “Substrate Cell Titer 96 Aqueous One Solution Reagent” (Promega) was added to each well. […] The net OD increase was calculated by subtracting the pre-substrate OD reading. The impact of the drug on the cells was calculated by comparing the OD at different concentrations in relation to the OD of the control wells (without the drug). The results of the Net OD as a function of drug concentration was plotted and used to determine ED50 values.

[3] = system: Long Evans and Sprague Dawley rats; assay: Chemotherapy-induced alopecia (CIA) in the neonatal rat, topical calcitriol formulation; format: in vivo; remark: listed apart in the source
chloroleukemia C51 cells = details: 0.2 μg pretreatment prior to cyclophosphamide; cited from earlier work
guinea pigs = assay: Skin sensitization study in guinea pigs; format: in vivo, guinea pig; details: 5.7 μg/g
Method: Induction phase. […] The induction exposure was repeated at the same skin site once a week for 2 weeks. The vehicle and positive control groups composed of 5 male and 5 female guinea pigs, each of which were exposed in the same manner as the treatment group to propylene glycol/anhydrous ethanol or hexylcinnamic aldehyde (a known mild to moderate skin-sensitizer), respectively. Skin reactions were scored and recorded at approximately 24 hours after patch removal during the induction phase. After the last induction exposure, the animals remained untreated for two weeks before the challenge exposure.
Challenge phase. The challenge exposure was conducted two weeks after the final topical induction. The test article was topically applied to the Vehicle Control and Test Group at the concentration determined to be non-irritating in the irritation screen. The Vehicle Control Group was also challenged with the Vehicle. The Positive Control Groups received the positive control article. The challenge application sites were scored at approximately 24 and 48 hours after patch removal.

[4] = Phase I study: serum levels of calcitriol (PK); format: in vivo, human; design: unit not given here; details: individual patients
Method: Pharmacokinetics (all patients). For the purpose of pharmacokinetic studies (PKs), blood samples will be collected on Day 1 of topical treatment at the following time points: pre-dose, at 2 hours (+/−30 minutes), 4 hours (+/−30 minutes), and 8 hours (+/−1 hour post dose) after a single application on the morning of Day 1. The second application of drug product will be applied 10-14 hours after the initial application and after the 8 hour PK sample. Thereafter, topical application frequency will be twice daily, morning and night. Subsequently, a PK sample will be taken 12 hours (+/−2 hours) after the last dose of each 28 day treatment, before the first application of Day 1 of the next 28 day treatment cycle. This schedule will continue for three consecutive 28 day topical treatment cycles. (PKs will be drawn at weeks 1, 5, 9, and 13. In addition if patients are still on study, a PK will also be drawn at week 54.) Vital signs will be obtained approximately 5 minutes before each blood collection, and the actual collection times will be recorded.
At each collection, collect blood by venipuncture in a serum separator tube(s). Centrifuge at 1200 RCF for 10±5 minutes, and aliquot 1.5 mL of serum each into 2 labeled externally threaded cryogenic vials and immediately freeze. […] Serum samples will be transported with a sufficient amount of dry ice to keep the samples frozen until arrival.
Each patient underwent PK analysis, adverse event monitoring, patient self-assessment diaries (1-10 scale), and blinded photographic assessments. […] Toxicity was determined on a weekly basis during Cycle 1 (i.e., the first 28 days of topical agent application) and subsequently every four weeks. Patients were managed with adequate safety (adverse event) monitoring and pharmacokinetic (PK) analysis in order to determine levels of exposure.

[5] = Long Evans rats, 0.2 μg total dose

C=C1/C(=C\C=C2/CCC[C@]3(C)[C@@H]([C@H](C)CCCC(C)(C)O)CC[C@@H]23)C[C@@H](O)C[C@@H]1O [Calcitriol, (5Z,7E)-9,10-secocholesta-5,7.10(19Hriene-1 a,33.25-triol]
protection from etoposide-induced alopecia ([1]; 0.1 μg of calcitriol topically for 6 hours, daily for 6 days): partial localized protection
protection from cyclophosphamide-induced alopecia ([1]; 0.3 μg calcitriol topically): full body protection
protection from etoposide-induced alopecia ([1]; 0.3 μg calcitriol topically): total body protection
protection from CTX-doxorubicin combination chemotherapy-induced alopecia [1, 5]: protects
protection from CTX-induced alopecia in rats injected with MIAC51 [1, 5]: protects
protection from cyclophosphamide (CTX)-induced alopecia [1, 5]: protects
protection from CIA in rats receiving etoposide ([1]; Sprague Dawley rats, topical formulation, two doses): protects from chemotherapy-induced alopecia (CIA) in a dose-dependent manner
protection against CIA in neonatal rat ([1]; about 0.2 μg (100 μL of 2 μg/mL topical solution)): protective
daily application prior to commencement of chemotherapy required to see any protective effect ([1]; rat model): at least four days
protection with 5 days of application prior to chemotherapy ([1]; rat model): moderate protection
effect of calcitriol on cell growth [2]: no significant growth promoting or growth inhibiting effects
effect of calcitriol on the cytotoxic effect of Doxorubicin [2]: does not appreciably alter; also recorded: did not appear to appreciably alter
protection from cytarabine-induced alopecia [3]: protective effect
survival rate vs ethanol vehicle (chloroleukemia C51 cells): No statistically significant difference in the survival rate
skin sensitization (guinea pigs): not determined to be a sensitizer
Serum Levels of Calcitriol ([4]; 5 μg/mL, Week 1, Hour 0 (pre-dose)): 43.8 and 47.9 and 55.3
Serum Levels of Calcitriol ([4]; 5 μg/mL, Week 1, Hour 2): 38.8 and 48.4 and 46.2
Serum Levels of Calcitriol ([4]; 5 μg/mL, Week 1, Hour 4): 45 and 51 and 58.7
Serum Levels of Calcitriol ([4]; 5 μg/mL, Week 1, Hour 8): 33.2 and 44.4 and 39.5
Serum Levels of Calcitriol ([4]; 5 μg/mL, Week 5, Hour 0): 57.5 and 49.6 and 61.8
Serum Levels of Calcitriol ([4]; 5 μg/mL, Week 9, Hour 0): 63.2 and 46.5
Serum Levels of Calcitriol ([4]; 5 μg/mL, Week 13, Hour 0): 56 and 54.6
Serum Levels of Calcitriol ([4]; 10 μg/mL, Week 1, Hour 0 (pre-dose)): 37.7 and 60 and 32
Serum Levels of Calcitriol ([4]; 10 μg/mL, Week 1, Hour 2): 32.9 and 59 and 33
Serum Levels of Calcitriol ([4]; 10 μg/mL, Week 1, Hour 4): 36.7 and 57 and 31
Serum Levels of Calcitriol ([4]; 10 μg/mL, Week 1, Hour 8): 50 and 28
Serum Levels of Calcitriol ([4]; 10 μg/mL, Week 5, Hour 0): 83.2 and 32 and 44
Serum Levels of Calcitriol ([4]; 10 μg/mL, Week 9, Hour 0): 41
Serum Levels of Calcitriol ([4]; 10 μg/mL, Week 13, Hour 0): 25.9
Serum Levels of Calcitriol ([4]; 20 μg/mL, Week 1, Hour 0 (pre-dose)): 110 and 33.7 and 41 and 46.8 and 40
Serum Levels of Calcitriol ([4]; 20 μg/mL, Week 1, Hour 2): 90 and 38 and 54.1 and 40
Serum Levels of Calcitriol ([4]; 20 μg/mL, Week 1, Hour 4): 85 and 22.4 and 39 and 50.1 and 41
Serum Levels of Calcitriol ([4]; 20 μg/mL, Week 1, Hour 8): 65 and 26.4 and 38 and 53.7 and 39
Serum Levels of Calcitriol ([4]; 20 μg/mL, Week 5, Hour 0): 27.3 and 98 and 56.4
Serum Levels of Calcitriol ([4]; 20 μg/mL, Week 9, Hour 0): 64.9 and 37.7
Serum Levels of Calcitriol ([4]; 40 μg/mL, Week 1, Hour 0 (pre-dose)): 44.7
Serum Levels of Calcitriol ([4]; 40 μg/mL, Week 1, Hour 2): 75.2 and 67.1
Serum Levels of Calcitriol ([4]; 40 μg/mL, Week 1, Hour 4): 56.1 and 68.4
Serum Levels of Calcitriol ([4]; 40 μg/mL, Week 1, Hour 8): 30.1 and 66.9
Serum Levels of Calcitriol ([4]; 40 μg/mL, Week 9, Hour 0): 37.3
Serum Levels of Calcitriol ([4]; 40 μg/mL, Week 13, Hour 0): 92 and 46.7
Serum Levels of Calcitriol ([4]; 60 μg/mL, Week 1, Hour 0 (pre-dose)): 29.1 and 36.4
Serum Levels of Calcitriol ([4]; 60 μg/mL, Week 1, Hour 2): 21.3 and 38.5 and 42
Serum Levels of Calcitriol ([4]; 60 μg/mL, Week 1, Hour 4): 24.7 and 41.2 and 42.9
Serum Levels of Calcitriol ([4]; 60 μg/mL, Week 1, Hour 8): 23.3 and 39.4 and 41.5
Serum Levels of Calcitriol ([4]; 60 μg/mL, Week 5, Hour 0): 65.4 and 81.6
Serum Levels of Calcitriol ([4]; 60 μg/mL, Week 9, Hour 0): 60.7 and 61.5
Serum Levels of Calcitriol ([4]; 60 μg/mL, Week 13, Hour 0): 45
Serum Levels of Calcitriol ([4]; 80 μg/mL, Week 1, Hour 0 (pre-dose)): 28.3 and 29.4 and 55.7
Serum Levels of Calcitriol ([4]; 80 μg/mL, Week 1, Hour 2): 31.8 and 35.6 and 64.8
Serum Levels of Calcitriol ([4]; 80 μg/mL, Week 1, Hour 4): 29.6 and 42.1 and 61.4
Serum Levels of Calcitriol ([4]; 80 μg/mL, Week 1, Hour 8): 36.6 and 58.9
Serum Levels of Calcitriol ([4]; 80 μg/mL, Week 5, Hour 0): 95.5
